Data as given in PubChem BioAssay (NCI).
Values joined by “and” are separate entries in the source; they are usually repeats but may differ in a detail not shown here. Identical values can stand only once.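 Protocol summary: plate cells (96-well), add compound at 5 concentrations, incubate 48 h, interpolate endpoints linearly. GI50 is the concentration that inhibits growth by half. Definition used: TGI = concentration required for complete inhibition of growth.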

How the values were obtained:
Test in all cases: growth of human tumour cells (NCI), 48 h
HL-60(TB) leukemia = tested on: HL-60(TB) leukemia
MCF7 breast = tested on: MCF7 breast
NCI-H460 lung = tested on: NCI-H460 lung
SK-MEL-2 melanoma = tested on: SK-MEL-2 melanoma
NCI-H522 lung = tested on: NCI-H522 lung
RXF 393 renal = tested on: RXF 393 renal
K-562 leukemia = tested on: K-562 leukemia
SK-MEL-5 melanoma = tested on: SK-MEL-5 melanoma
A549 NSCLC = tested on: A549 NSCLC
NCI-H226 lung = tested on: NCI-H226 lung

Compound | GI50 (HL-60(TB) leukemia) [µM] | TGI (HL-60(TB) leukemia) [µM] | GI50 (MCF7 breast) [µM] | TGI (MCF7 breast) | GI50 (NCI-H460 lung) | TGI (NCI-H460 lung) | GI50 (SK-MEL-2 melanoma) [µM] | TGI (SK-MEL-2 melanoma) | GI50 (NCI-H522 lung) [µM] | TGI (NCI-H522 lung) | GI50 (RXF 393 renal) [µM] | TGI (RXF 393 renal) [µM] | GI50 (K-562 leukemia) [µM] | TGI (K-562 leukemia) [µM] | GI50 (SK-MEL-5 melanoma) [µM] | TGI (SK-MEL-5 melanoma) | GI50 (A549 NSCLC) [µM] | TGI (A549 NSCLC) [µM] | GI50 (NCI-H226 lung) [µM] | TGI (NCI-H226 lung) [µM]
CNCCN(C)Cc1cn[nH]c1-c1ccc(OC2CC(OCCC3CCOCC3)C2)cc1 (configuration not stated) | > 80.1 | > 100 | > 81.2 | > 100 µM | 97.9 µM | > 100 µM | > 100 | > 100 µM | > 100 | > 100 µM | 48.5 | > 100 | 33.3 | > 100 | 34 | > 100 µM | > 100 | > 100 | > 100 | > 100
O=c1c2cc(O)c(O)cc2oc2cc(O)c(C3OC(CO)C(O)C(O)C3O)c(O)c12 (configuration not stated) |  | > 100 |  | > 100 µM |  | > 100 µM |  | > 100 µM |  | > 100 µM |  | > 100 |  | > 100 |  | > 100 µM |  | > 100 |  | > 100
O=C(CSc1ncc(-c2ccccc2)n1-c1ccccc1)Nc1ccc(-c2nc3ccccc3s2)cc1 | > 100 | > 100 | 3.98 | > 100 µM | 3.61 µM | > 100 µM | 12 | 73.2 µM | 8.11 | > 100 µM | 11.2 | 47.4 | > 100 | > 100 | > 100 | > 100 µM |  |  | 43.3 | > 100
CCCc1n(Cc2ccc3ccccc3n2)cc[n+]1Cc1ccc2ccccc2n1 | 0.34 | 1.69 | 1.25 | 11.9 µM | 2.44 µM | 11.5 µM | 1.52 | 5.68 µM | 0.438 | 5.07 µM | 9.08 | 35.4 | 0.72 | 15.9 | 0.866 | 2.36 µM | 7.73 | > 100 | 3.26 | 26.2
C#Cc1ccc(-n2c(/C=C/c3ccc4ccccc4c3)nc3ncccc3c2=O)cc1 | 1.66 | 8.83 | 2.43 | > 100 µM | 2.88 µM | > 100 µM | 2.41 | 6.2 µM | 5.11 | > 100 µM | 1.79 | 5.47 | 2.43 | > 100 | 1.16 | 2.52 µM | 2.73 | > 100 |  | 
COc1cc2c(cc1O)C1CC(CC3CCCCN31)OC(=O)/C=C\c1ccc(O)c-2c1 (configuration not stated) |  | 58.3 |  | 53.2 µM |  | > 100 µM |  | 72.1 µM |  | 65 µM |  |  |  | > 100 |  | 31.4 µM |  | > 100 |  | > 100
CCCCCCSc1nc(COC(=O)NC)c(COC(=O)NC)n1C |  | > 100 |  | > 100 µM |  | > 100 µM |  | > 100 µM |  | > 100 µM |  |  |  | > 100 |  | > 100 µM |  | > 100 |  | > 100
CCN(CCO)CCCOc1ccc2c(Nc3cc(CC(=O)Nc4cccc(F)c4)[nH]n3)ncnc2c1 | 13 | 40.4 |  | 22.5 µM and > 4.11 µM | 0.071 µM and 0.0456 µM | 21.3 µM and > 3.81 µM | 16.9 | 35.4 µM and > 2.16 µM |  | 37.2 µM and > 4.22 µM |  |  | 8.89 | > 78.4 | 19.8 | 48.5 µM and > 3.51 µM | 20.5 | > 100 | 23.8 | > 100
COc1ccc(/C=C2/CN(CCC#N)C/C(=C\c3ccc(OC)cc3)C2=O)cc1 |  |  | 1.72 | > 100 µM | 1.97 µM | 4.75 µM | 2.72 | 7.15 µM | 1.83 | 4.32 µM | 1.7 | 3.29 | 3.28 | > 100 | 1.39 | 2.74 µM | 2.92 | > 100 | 21.3 | > 100
COC(=O)C1(C)CCCC2(C)c3cc(OC)ccc3C(=O)C(Br)C12 (configuration not stated) |  | 4.2 |  | > 10 µM |  | > 10 µM |  | > 10 µM |  | 5.25 µM |  | > 10 |  | > 10 |  | > 10 µM |  | > 10 |  | > 10
Cc1cn2c(/C=C3/C(=O)Nc4ccc(Cl)cc43)c(C)nc2s1 |  |  | 1.57 | > 100 µM | 1.04 µM | > 59.4 µM | 21.4 | > 100 µM | 1.01 | > 100 µM | 6.74 | > 100 |  | > 100 | 0.125 | 14.4 µM | 1.05 | > 49.1 | 11 | > 90.6
CC[C@@]1(O)C(=O)NCc2c1cc1n(c2=O)Cc2cc3c(NC(C)=O)cccc3nc2-1 | > 100 | > 100 | > 100 | > 100 µM | > 100 µM | > 100 µM | > 100 | > 100 µM | > 100 | > 100 µM | > 100 | > 100 | > 100 | > 100 | > 100 | > 100 µM | > 100 | > 100 | > 100 | > 100
Cn1cc(C2=C(c3c(S(C)=O)n(C)c4ccccc34)C(=O)NC2=O)c2ccccc21 (configuration not stated) | 5.39 | 17.7 | 6.33 | > 25 µM | 5.83 µM | > 25 µM | 7.88 | > 25 µM | 4.47 | > 23.4 µM | 5.42 | > 20.7 | 8.89 | > 25 | 6.96 | > 25 µM | 9.24 | > 25 | 8.04 | > 25
O=C(/C=C/c1ccccc1)OCC1=C[C@@H](O)[C@@H]2C=CO[C@@H](OC3OC(CO)C(O)C(O)C3O)[C@H]12 (some centres not stated) |  |  |  | > 100 µM |  |  |  | > 100 µM |  | > 100 µM |  | > 100 |  |  |  | > 100 µM |  | > 100 |  | > 100
Cc1cc2c(cc1Cl)N1C(=O)NS(=O)(=O)N=C1NS2(=O)=O | > 100 | > 100 | > 100 | > 100 µM | > 100 µM | > 100 µM | > 100 | > 100 µM | > 100 | > 100 µM |  |  | > 100 | > 100 | > 100 | > 100 µM | > 100 | > 100 | > 100 | > 100
O=C(O)c1cn(C2CC2)c2cc(N3CCN(Cc4ccc5ccccc5c4O)CC3)c(F)cc2c1=O | > 100 | > 100 | 3.63 | > 100 µM |  |  | 5.11 | > 100 µM |  |  | 2.29 | 5.64 |  |  | 3.78 | > 100 µM | 3.29 | > 100 | 3.14 | > 100
Cc1cc(N)cc(C)c1-c1c(Br)cc(N)cc1Br |  |  | 4.54 | > 100 µM | 3.31 µM | 11.2 µM | 4.14 | 21.1 µM | 2.19 | 7.88 µM | 2.57 | 6.91 |  |  | 4.52 | 16.1 µM | 4.71 | 56.5 | 9.43 | > 100
N=C1C(c2nc3ccccc3s2)=C(O)CN1c1cc(Cl)cc(Cl)c1 | > 100 | > 100 | > 100 | > 100 µM | 18.5 µM | > 100 µM | > 100 | > 100 µM |  |  |  |  | > 100 | > 100 | > 100 | > 100 µM | > 100 | > 100 | > 100 | > 100
CC(C)COC(c1ccc2c(c1)OCO2)C(C)Br (configuration not stated) |  |  |  | 86.9 µM |  | 51.5 µM |  | 44.3 µM |  | 37.8 µM |  | 23.2 |  | > 100 |  | 36.4 µM |  | > 100 |  | 70.7
FC(F)(F)c1ccc(NCc2nc3ccccc3[nH]2)cc1 | 12.1 | 38.5 | 21.5 | 53.2 µM | 19.5 µM | 47.7 µM | 20.7 | 42.1 µM | 24.7 | 95.3 µM | 24.4 | 81.9 |  |  | 15.6 | 30 µM | 27.7 | > 100 | 26.1 | > 100
Nc1nc2ncn(CC(O)COC(=O)c3ccccc3)c2c(=O)[nH]1 (configuration not stated) |  | > 100 |  |  |  | > 100 µM |  | > 100 µM |  | > 100 µM |  | > 100 |  | > 100 |  | > 100 µM |  | > 100 |  | > 100
N#Cc1c(N)c(C#N)c2c(c1-c1ccc(Cl)cc1)COc1ccc(F)cc1-2 | > 50 | > 50 | 16.5 | > 50 µM | 18.7 µM | > 50 µM | > 50 | > 50 µM | 2.75 | 14.5 µM | > 50 | > 50 | > 50 | > 50 | 16.4 | > 50 µM | 42.6 | > 50 |  | 
COc1ccc2c(c1)C(=O)c1c-2c(N2CCN(C(=O)CCNCCNCCO)CC2)nc2ccccc12 | 10.3 | 25.8 | 7.27 | 25.9 µM | 4.61 µM | 19.6 µM | 24.1 | 52.6 µM | 17.5 | 46.8 µM |  |  | 2.97 | 7.34 | 18 | 33.8 µM | 13.2 | 28 | 22.6 | 48.1
COc1cc(Cn2c(SCC(=O)Nc3ccc(Cl)cc3)nc3ccccc3c2=O)cc(OC)c1OC | > 100 | > 100 | 8.97 | 55.1 µM | 10.4 µM | 59.1 µM | 15.2 | 32.9 µM | 4.89 | 21.9 µM | 2.59 | 8.88 |  |  | 6.38 | 21.2 µM | 4.66 | 21.1 | 4 | 26.2
COc1cc(NC(C)CCCN2C(=O)c3ccccc3C2=O)c2ncccc2c1OC (configuration not stated) | 15.2 | > 100 | 10.9 | > 100 µM | 35.5 µM | > 100 µM | 29 | > 100 µM | 35.4 | > 100 µM |  |  | 83.9 | > 100 | 16.5 | 30.1 µM | 33 | > 100 | 33.3 | > 100
c1ccc2c(c1)N=C(c1ccc3ccccc3c1)CC(c1cccc3ccccc13)S2 (configuration not stated) |  | 47.1 |  |  |  | > 100 µM |  | > 100 µM |  | 75.4 µM |  | > 100 |  | 54 |  | > 100 µM |  | > 100 |  | > 100
Cc1cc2c(cc1Cl)SC(C(=O)c1ccc(Cl)c(Cl)c1)NS2(=O)=O (configuration not stated) | 39.8 | 80.6 | 21.2 | 47.3 µM | 23.5 µM | 50.7 µM | 40.2 | > 100 µM | 28.9 | 74.4 µM |  |  | 35.6 | > 100 | 42.3 | > 100 µM | 45.2 | > 100 | 49.9 | > 100
Cc1cc(C#Cc2ccccc2)ccc1-n1c(/C=C/c2cc(O)ccc2O)nc2ccccc2c1=O |  |  | 1.45 | 2.87 µM | 1.57 µM | 2.91 µM | 1.4 | 3.05 µM | 1.29 | 2.56 µM | 1.65 | 3.72 | 1.42 | 3.82 | 1.35 | 2.64 µM | 1.28 | 2.68 | 1.52 | 3.93
CN1CCc2cc3c4cc2C1Cc1ccc(cc1)Oc1cc(ccc1O)CC1c2c(cc(O)c(c2O4)O3)CCN1C (configuration not stated) |  | 41.6 |  |  |  | 4.01 µM |  | 3.18 µM |  | 11.1 µM |  | 13.2 |  | 4.54 |  | 16.7 µM |  | 6.11 |  | 4.97
O=C(NC1C(=O)NNC1c1ccccc1Cl)c1ccccc1 (configuration not stated) |  | > 100 |  |  |  | > 100 µM |  | > 100 µM |  | > 100 µM |  | > 100 |  | > 100 |  | > 100 µM |  | > 100 |  | > 100
